Earlier results in paper PMC9230590, “Pharmacokinetics and Tissue Distribution of Enavogliflozin in Mice and Rats” (Pharmaceutics, 2022).
Like-named read-outs stand apart in the source and are kept apart here.

Experiments:
HbA1c = conditions: cited from earlier work
[1] = design: method as in PMID 32183468; conditions: mice; cited from earlier work
[2] = rats and humans, single oral dose of [14C]dapagliflozin; cited from earlier work
[3] = cited from earlier work
[4] = single oral administration of [14C]canagliflozin
[5] = single oral administration of [14C]ipragliflozin

Q: For `OC[C@H]1O[C@@H](c2ccc(Cl)c(Cc3ccc(O[C@H]4CCOC4)cc3)c2)[C@H](O)[C@@H](O)[C@@H]1O` [empagliflozin], which “reduction of HbA1c” value (HbA1c; empagliflozin-treated patients) is on record?
A: Its value is 0.74–0.85%.

Q: Which “ratio of AUC in kidney to AUC in plasma” value [1] does the source give for `CCOc1ccc(Cc2cc([C@@H]3O[C@H](CO)[C@@H](O)[C@H](O)[C@H]3O)ccc2Cl)cc1` [dapagliflozin] here?
A: The value was 64.6 ± 31.8.

Q: And the “reduction in HbA1c values” (HbA1c; monotherapy 2.5–10 mg, once daily for 24 weeks, untreated T2DM patients)?
A: The value was 0.67–0.84%.

Q: What about the “reduction of mean HbA1c compared with conventional monotherapy” value (HbA1c; with conventional anti-diabetes medication, meta-analysis) of the same compound?
A: The value was 0.54%.

Q: And the “drug-related radioactivity (parent and glucuronide metabolite) recovered in urine” value [2]?
A: The value was “more than 90%”.

Q: For `Cc1ccc([C@@H]2O[C@H](CO)[C@@H](O)[C@H](O)[C@H]2O)cc1Cc1ccc(-c2ccc(F)cc2)s1` [canagliflozin], which “reduction of HbA1c” value (HbA1c; untreated type 2 diabetic (T2DM) patients) is on record?
A: Its value is 0.97%.

Q: And the “fecal recovery of radioactivity” value [3, 4]?
A: Its value is 85.4–93.7%.

Q: And the “hydroxylated metabolites in fecal recovery” value [3, 4]?
A: The value was 7.6–64.3%.

Q: And the “unchanged drug in fecal recovery” value [3, 4]?
A: The value was 3.5–38.7%.

Q: For `OC[C@H]1O[C@@H](c2ccc(F)c(Cc3cc4ccccc4s3)c2)[C@H](O)[C@@H](O)[C@@H]1O` [ipragliflozin], which “ratio of AUC in kidney to AUC in plasma” value [1] is on record?
A: The value was 38.4 ± 5.3.

Q: And the “cumulative fecal recovery of drug-related radioactivity” value [3, 5]?
A: The value was 86.9% ± 2.6%.

Q: And the “glucuronide metabolite identified in feces” value [3, 5]?
A: Its value is “about 64%”.

Q: And the “unchanged drug identified in feces” value [3, 5]?
A: Its value is “less than 5%”.
